Two molecules from ChEMBL document CHEMBL5653615 (J Biol Chem, 2013) can be followed below.

Assay [1] concerns the target T1, Serine/threonine-protein kinase D1 (Homo sapiens) (UniProt Q15139).
T1 sequence (whole entry): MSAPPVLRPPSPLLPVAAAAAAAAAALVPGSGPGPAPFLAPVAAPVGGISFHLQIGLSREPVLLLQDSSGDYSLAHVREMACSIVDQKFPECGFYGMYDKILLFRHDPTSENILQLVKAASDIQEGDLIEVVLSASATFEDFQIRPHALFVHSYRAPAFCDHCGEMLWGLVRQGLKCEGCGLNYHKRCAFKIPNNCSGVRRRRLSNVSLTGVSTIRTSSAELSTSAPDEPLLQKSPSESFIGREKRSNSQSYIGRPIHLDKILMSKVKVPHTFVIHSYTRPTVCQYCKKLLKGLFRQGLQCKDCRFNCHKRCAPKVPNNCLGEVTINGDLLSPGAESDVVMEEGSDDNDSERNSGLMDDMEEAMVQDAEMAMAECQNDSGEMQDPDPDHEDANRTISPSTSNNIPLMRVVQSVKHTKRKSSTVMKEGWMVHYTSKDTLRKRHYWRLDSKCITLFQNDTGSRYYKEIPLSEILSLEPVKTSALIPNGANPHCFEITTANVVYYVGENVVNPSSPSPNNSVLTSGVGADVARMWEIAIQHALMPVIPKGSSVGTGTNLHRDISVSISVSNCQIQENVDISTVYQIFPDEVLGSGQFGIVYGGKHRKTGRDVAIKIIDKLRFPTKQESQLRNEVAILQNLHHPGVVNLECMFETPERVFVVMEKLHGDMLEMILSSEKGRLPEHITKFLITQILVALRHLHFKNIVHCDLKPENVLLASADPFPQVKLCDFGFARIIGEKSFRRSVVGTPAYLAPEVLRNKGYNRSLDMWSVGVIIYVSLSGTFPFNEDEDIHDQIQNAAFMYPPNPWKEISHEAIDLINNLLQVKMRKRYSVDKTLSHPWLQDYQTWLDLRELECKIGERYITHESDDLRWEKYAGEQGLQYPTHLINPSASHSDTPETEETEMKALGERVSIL
Put plainly: Inhibition of human PRKD1 at 18.6 nM by HotSpot assay relative to control.

Assay [2] addresses Homeodomain-interacting protein kinase 3 (Homo sapiens) (UniProt Q9H422). Put plainly: Inhibition of human HIPK3 at 18.6 nM by HotSpot assay relative to control.
The target of assay [3] is T2, Serine/threonine-protein kinase 4 (Homo sapiens) (UniProt Q13043).
T2 sequence (whole entry): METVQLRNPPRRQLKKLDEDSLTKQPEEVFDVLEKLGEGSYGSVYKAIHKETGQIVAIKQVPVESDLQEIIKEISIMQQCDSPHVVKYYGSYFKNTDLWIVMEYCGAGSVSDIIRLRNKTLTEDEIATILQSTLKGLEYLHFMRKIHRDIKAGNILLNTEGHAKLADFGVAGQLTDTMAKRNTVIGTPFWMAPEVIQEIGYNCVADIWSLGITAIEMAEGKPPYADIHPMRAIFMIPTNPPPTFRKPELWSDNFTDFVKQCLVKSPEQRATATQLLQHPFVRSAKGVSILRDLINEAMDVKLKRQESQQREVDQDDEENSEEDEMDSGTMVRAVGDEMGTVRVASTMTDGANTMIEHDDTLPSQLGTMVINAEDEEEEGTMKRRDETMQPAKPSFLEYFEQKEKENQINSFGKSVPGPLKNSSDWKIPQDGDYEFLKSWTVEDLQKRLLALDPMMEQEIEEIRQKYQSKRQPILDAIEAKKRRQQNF
Put plainly: Inhibition of human STK4 at 18.6 nM by HotSpot assay relative to control.

Assay [4] deals with Mitogen-activated protein kinase kinase kinase kinase 4 (Homo sapiens) (UniProt O95819). Put plainly: Inhibition of human HGK at 18.6 nM by HotSpot assay relative to control.
Chain of Mitogen-activated protein kinase kinase kinase kinase 4 (Homo sapiens) (O95819 2-1239 limits assumed): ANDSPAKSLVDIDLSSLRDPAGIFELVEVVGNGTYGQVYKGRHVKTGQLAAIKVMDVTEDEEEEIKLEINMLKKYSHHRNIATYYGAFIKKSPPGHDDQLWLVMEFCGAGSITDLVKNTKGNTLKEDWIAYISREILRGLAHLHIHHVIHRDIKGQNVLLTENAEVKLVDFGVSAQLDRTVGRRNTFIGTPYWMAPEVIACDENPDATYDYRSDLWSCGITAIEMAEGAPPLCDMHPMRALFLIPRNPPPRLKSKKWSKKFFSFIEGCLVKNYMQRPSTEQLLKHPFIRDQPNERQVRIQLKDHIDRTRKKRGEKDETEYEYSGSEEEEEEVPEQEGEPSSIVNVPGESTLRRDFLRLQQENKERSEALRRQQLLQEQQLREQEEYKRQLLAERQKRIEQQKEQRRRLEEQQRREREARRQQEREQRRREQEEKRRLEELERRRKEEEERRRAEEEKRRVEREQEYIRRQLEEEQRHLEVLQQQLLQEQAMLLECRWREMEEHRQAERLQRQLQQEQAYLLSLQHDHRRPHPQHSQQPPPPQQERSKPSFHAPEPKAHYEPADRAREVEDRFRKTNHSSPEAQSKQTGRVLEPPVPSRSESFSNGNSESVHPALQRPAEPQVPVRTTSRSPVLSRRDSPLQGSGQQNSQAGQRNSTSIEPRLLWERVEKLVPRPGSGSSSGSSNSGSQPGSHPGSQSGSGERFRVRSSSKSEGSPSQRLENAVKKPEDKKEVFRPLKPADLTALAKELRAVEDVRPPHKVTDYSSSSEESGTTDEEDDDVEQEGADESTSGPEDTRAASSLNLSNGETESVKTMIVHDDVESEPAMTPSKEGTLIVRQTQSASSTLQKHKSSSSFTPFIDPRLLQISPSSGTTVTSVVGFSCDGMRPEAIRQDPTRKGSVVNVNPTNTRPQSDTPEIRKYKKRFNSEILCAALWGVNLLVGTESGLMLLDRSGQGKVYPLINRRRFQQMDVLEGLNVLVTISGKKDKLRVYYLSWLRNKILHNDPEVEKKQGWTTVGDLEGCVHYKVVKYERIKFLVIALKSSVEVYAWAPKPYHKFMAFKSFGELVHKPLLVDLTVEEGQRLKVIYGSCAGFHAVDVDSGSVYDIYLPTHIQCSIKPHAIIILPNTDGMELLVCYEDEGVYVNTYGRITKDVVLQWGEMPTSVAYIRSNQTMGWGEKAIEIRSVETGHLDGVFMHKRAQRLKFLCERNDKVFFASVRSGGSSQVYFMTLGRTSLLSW
The target in assay [5] is Tyrosine-protein kinase Yes (Homo sapiens) (UniProt P07947). Put plainly: Inhibition of human YES1 at 18.6 nM by HotSpot assay relative to control.
Chain of Tyrosine-protein kinase Yes (Homo sapiens) (P07947 2-543 limits assumed): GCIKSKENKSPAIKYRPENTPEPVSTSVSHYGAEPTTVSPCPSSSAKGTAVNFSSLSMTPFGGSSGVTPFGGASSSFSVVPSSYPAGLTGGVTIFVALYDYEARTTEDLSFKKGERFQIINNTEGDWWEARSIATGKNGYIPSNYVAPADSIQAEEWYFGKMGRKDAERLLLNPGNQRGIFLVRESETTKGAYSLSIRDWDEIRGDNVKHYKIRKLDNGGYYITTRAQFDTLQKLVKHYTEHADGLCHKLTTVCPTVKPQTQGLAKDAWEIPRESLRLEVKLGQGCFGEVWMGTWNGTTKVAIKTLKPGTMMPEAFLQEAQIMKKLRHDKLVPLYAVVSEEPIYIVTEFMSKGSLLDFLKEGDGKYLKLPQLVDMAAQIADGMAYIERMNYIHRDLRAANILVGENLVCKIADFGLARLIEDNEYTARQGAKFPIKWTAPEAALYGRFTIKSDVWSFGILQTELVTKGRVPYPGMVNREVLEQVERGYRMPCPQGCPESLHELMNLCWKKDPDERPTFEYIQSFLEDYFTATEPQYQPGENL
For assay [6], the target named is Casein kinase I isoform gamma-3 (Homo sapiens) (UniProt Q9Y6M4). Put plainly: Inhibition of human CK1g3 at 18.6 nM by HotSpot assay relative to control.
Chain of Casein kinase I isoform gamma-3 (Homo sapiens) (Q9Y6M4 whole entry, looked up, canonical isoform): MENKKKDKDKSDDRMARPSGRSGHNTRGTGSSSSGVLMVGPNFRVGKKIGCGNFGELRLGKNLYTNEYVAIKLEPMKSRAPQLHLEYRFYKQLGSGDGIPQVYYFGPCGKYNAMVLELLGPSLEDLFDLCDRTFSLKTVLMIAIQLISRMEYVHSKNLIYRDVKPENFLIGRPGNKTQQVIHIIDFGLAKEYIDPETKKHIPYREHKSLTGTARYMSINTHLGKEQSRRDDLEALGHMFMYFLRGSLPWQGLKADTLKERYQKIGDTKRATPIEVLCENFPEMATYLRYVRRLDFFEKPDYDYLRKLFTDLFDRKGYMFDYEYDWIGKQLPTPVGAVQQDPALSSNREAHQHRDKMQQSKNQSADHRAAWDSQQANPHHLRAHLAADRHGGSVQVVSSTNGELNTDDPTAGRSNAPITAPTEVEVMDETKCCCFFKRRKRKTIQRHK
In assay [7] the target is T3, G protein-coupled receptor kinase 3 (Homo sapiens) (UniProt P35626).
T3 sequence (whole entry): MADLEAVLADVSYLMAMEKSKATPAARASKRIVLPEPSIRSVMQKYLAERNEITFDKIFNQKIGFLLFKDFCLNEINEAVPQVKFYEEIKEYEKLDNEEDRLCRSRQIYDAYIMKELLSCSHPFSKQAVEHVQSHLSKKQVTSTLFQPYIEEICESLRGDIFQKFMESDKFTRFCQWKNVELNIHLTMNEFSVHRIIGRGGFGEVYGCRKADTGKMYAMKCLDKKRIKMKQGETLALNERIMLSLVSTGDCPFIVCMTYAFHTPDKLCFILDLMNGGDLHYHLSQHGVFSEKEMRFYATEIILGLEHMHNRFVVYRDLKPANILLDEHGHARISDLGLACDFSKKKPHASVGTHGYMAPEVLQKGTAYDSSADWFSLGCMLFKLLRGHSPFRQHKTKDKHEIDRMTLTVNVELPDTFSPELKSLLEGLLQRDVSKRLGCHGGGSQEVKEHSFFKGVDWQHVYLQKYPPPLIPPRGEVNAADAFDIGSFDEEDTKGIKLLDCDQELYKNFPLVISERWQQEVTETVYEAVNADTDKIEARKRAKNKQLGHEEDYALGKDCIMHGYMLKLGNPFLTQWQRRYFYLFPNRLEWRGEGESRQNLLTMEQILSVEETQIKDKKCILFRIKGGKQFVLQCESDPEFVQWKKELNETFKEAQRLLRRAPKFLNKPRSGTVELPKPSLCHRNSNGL
Put plainly: Inhibition of human GRK3 at 1.82 nM by HotSpot assay relative to control.

Assay [8] has as its target Serine/threonine-protein kinase 10 (Homo sapiens) (UniProt O94804). Put plainly: Inhibition of human LOK at 1.82 nM by HotSpot assay relative to control.
For assay [9], the target named is STE20/SPS1-related proline-alanine-rich protein kinase (Homo sapiens) (UniProt Q9UEW8). Put plainly: Inhibition of human STLK3 at 1.82 nM by HotSpot assay relative to control.
Assay [10] addresses Tyrosine-protein kinase HCK (Homo sapiens) (UniProt P08631). Put plainly: Inhibition of human HCK at 1.82 nM by HotSpot assay relative to control.
For assay [11], the target named is Proto-oncogene tyrosine-protein kinase ROS (Homo sapiens) (UniProt P08922). Put plainly: Inhibition of human ROS1 at 1.82 nM by HotSpot assay relative to control.
For assay [12], the target named is Tyrosine-protein kinase JAK1 (Homo sapiens) (UniProt P23458). Put plainly: Inhibition of human JAK1 at 1.82 nM by HotSpot assay relative to control.
Chain of Tyrosine-protein kinase JAK1 (Homo sapiens) (P23458 whole entry): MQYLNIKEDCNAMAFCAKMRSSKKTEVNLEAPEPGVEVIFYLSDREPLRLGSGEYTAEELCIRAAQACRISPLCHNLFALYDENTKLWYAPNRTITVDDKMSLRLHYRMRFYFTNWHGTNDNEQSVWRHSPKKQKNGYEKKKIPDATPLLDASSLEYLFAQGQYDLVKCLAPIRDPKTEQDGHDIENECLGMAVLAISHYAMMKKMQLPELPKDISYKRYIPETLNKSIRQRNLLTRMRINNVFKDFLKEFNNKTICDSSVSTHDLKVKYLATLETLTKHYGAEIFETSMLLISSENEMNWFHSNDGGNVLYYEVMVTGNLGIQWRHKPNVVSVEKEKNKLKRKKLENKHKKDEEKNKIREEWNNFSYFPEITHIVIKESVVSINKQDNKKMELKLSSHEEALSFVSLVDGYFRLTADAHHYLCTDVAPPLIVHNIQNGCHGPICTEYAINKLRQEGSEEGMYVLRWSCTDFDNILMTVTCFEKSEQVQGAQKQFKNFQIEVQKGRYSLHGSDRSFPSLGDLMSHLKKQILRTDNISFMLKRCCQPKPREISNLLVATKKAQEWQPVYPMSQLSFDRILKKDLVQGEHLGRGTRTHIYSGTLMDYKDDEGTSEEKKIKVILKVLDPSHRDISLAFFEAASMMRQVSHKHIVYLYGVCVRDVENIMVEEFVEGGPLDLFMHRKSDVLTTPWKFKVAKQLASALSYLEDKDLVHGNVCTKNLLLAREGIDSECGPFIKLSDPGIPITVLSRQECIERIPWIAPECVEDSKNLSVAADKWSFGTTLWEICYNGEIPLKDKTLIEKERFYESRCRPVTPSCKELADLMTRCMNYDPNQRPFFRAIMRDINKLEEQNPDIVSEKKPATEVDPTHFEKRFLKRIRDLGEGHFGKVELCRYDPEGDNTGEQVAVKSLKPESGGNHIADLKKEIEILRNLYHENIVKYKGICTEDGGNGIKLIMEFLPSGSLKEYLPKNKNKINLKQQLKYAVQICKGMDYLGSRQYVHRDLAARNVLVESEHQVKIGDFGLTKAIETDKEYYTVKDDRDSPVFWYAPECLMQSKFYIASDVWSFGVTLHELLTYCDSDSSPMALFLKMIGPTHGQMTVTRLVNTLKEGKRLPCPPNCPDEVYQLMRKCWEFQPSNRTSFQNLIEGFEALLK
Assay [13] has as its target Protein kinase C eta type (Homo sapiens) (UniProt P24723). Put plainly: Inhibition of human PKCeta at 1.82 nM by HotSpot assay relative to control.
Assay [14] has as its target Serine/threonine-protein kinase PLK2 (Homo sapiens) (UniProt Q9NYY3). Put plainly: Inhibition of human PLK2 at 1.82 nM by HotSpot assay relative to control.

Chain of Tyrosine-protein kinase HCK (Homo sapiens) (P08631 2-526 limits assumed): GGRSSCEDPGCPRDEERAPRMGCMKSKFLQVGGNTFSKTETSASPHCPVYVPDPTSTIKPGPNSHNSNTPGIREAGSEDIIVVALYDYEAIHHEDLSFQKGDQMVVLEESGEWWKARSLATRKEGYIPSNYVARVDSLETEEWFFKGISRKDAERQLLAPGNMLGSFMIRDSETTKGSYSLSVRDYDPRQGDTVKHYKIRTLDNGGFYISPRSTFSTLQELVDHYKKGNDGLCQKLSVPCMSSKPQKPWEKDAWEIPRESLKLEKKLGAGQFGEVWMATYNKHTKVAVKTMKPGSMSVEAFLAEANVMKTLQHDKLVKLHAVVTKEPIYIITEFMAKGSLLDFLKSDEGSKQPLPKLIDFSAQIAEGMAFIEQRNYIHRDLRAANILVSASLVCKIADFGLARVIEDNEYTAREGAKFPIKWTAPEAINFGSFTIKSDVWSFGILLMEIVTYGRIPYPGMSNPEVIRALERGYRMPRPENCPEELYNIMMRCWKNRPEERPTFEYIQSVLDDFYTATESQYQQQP
Chain of Serine/threonine-protein kinase PLK2 (Homo sapiens) (Q9NYY3 whole entry, looked up): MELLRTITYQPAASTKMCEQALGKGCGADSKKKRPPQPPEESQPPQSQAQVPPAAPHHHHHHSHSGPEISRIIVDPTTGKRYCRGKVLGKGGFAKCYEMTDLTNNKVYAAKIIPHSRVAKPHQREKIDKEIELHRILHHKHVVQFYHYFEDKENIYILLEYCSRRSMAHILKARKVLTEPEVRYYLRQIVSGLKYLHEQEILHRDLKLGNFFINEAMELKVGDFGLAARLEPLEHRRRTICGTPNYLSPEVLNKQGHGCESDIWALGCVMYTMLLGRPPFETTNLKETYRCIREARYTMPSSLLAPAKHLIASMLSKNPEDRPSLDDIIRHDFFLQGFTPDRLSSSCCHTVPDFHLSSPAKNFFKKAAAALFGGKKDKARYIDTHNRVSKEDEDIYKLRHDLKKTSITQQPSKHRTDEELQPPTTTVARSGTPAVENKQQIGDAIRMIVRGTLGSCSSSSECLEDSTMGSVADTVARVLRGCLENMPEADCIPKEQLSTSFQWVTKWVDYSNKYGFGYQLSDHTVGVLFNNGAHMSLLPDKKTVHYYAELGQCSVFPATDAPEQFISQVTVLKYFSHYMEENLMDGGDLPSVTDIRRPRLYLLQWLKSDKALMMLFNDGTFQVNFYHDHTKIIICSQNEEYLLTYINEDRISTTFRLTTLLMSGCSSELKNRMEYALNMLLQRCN

`C[C@]1(O)C[C@@H](c2nc(-c3ccc4ccc(-c5ccccc5)nc4c3)c3c(N)nccn32)C1`: the inhibition (in general, the change of the read-out against control, counted positive when it falls) in assay [1] is -2.06%; in assay [2] it was -5.3%; in assay [3] it was 6.04%; in [4] it was -9.59%; in assay [5] it was 4.32%; in [6], 1.42%.

Take `C[C@@]1(C(=O)Nc2ccc(F)nc2)CCCN1c1nc(Nc2cc(C3CC3)n[nH]2)c2cccn2n1`: the inhibition in [7] was -5.67%; in assay [8], 12%; in [9] it was -5.74%; in assay [10], 9.36%; in assay [11], 73.5%; in [12], -5.65%. For the same molecule, the results for the inhibition in assay [13] and in assay [14] were -0.87% and 1.2%, respectively.
